Laboratory results from patent publication US20250114377A1, “TWO-PRONGED TREATMENT FOR NIEMANN PICK TYPE C DISEASE” (UNIVERSITY OF NOTRE DAME DU LAC, priority 2022, published 2025).
“Also recorded” adds a separate entry of the source.

Columns and labels:
lysosomal tubulation = assay: Rescue of lysosomal tubulation with purified oxysterols in LDL-depleted media (FIG. 4); assay type: cell-based
Procedure: FIG. 4. Rescue of Lysosomal Tubulation with Purified Oxysterols. Measurements of lysosomal tubulation comparing control complete media (Control) to media depleted of LDL (LDL−) and depleted media supplemented with 27-hydroxycholesterol (27-HC), 24-hydroxycholesterol (24-HC) or 25-hydroxycholesterol (25-HC).
Fixed and live-cell imaging was performed on COS-7 cells grown in Dulbecco's Modified Eagle's Medium (DMEM) supplemented with 10% fetal bovine serum, 1% L-glutamine, and penicillin/streptomycin (Sigma-Aldrich). Transfections were performed using either Lipofectamine (Life Technologies), X-treme Gene DNA Transfection reagent (Roche, Indianapolis, IN) or Nanofect (Allstem, Richmond, CA). J774A.1 mouse macrophages were provided and cultured in the same media. Cells were tested for contamination using PCR-based test kits (Sartorius, Inc.; Cat #SMB95-1001).
Microscopy experiments were performed on a Zeiss Axiovert 200M (Thornwood, NY) run by Metamorph software (Sunnyvale, CA). Fixed and live cell imaging data was collected using either a Photometrics Coolsnap HQ or Cascade 1k CCD camera (Tucson, AZ). Timelapse imaging of cells expressing NPC1-EGFP and mCherry-StARD9 utilized a Dual-view camera (Photometrics) adapter to allow simultaneous acquisition of green and red channels at each timepoint. Kymographs were generated in Metamorph using a 1p m slice from each frame.
(§1) To test this idea, we treated either NPC1 mutant (null or I1061T) or StARD9 mutant (null or truncation mutant) cells with 27-HC in a cocktail that delivers it into the cytoplasm independent of receptor-mediated endocytosis. […] Next, we treated NPC1(−/−) mice with 27-HC by i.p. delivery.

NPC1(−/−) mice = assay: 27-HC treatment of NPC1(−/−) mice by intraperitoneal injection; assay type: in vivo; settings: i.p.
Procedure: FIG. 7A-C. Behavioral Analysis of NPC1(−/−) Mice Treated with 27-HC. NPC1(−/−) treated with 0 mg/kg (●) or 10 mg/kg (▴) 27-HC once per week by intraperitoneal injection were tested using (A) Tremor Scores p=0.01), (B) Rotarod Analysis (p=0.0037) or (C) Coathanger Tests (p=0.0229).
FIG. 8. Impact of 27-HC Treatment on NPC1 (−/−) Mice. Immunohistochemical staining of cerebella stained for calbindin after treatment with either Omg/kg or 10 mg·kg 27-HC once per week by intraperitoneal injection. Brown staining indicates Purkinje cell survival in lobes of the cerebellum (I, V, X).
FIG. 9A-C. Impact of 27-HC Treatment on NPC1 (−/−) Mice. Quantification of Purkinje cells preservation at days (A) P42, (B) P63 or (C) P77. Lobes are binned as I-V, VI-VII, VIII, or IX-X. A Student's t-test was calculated on total Purkinje cell counts from each timepoint (p-values).
FIG. 10. Impact of 27-HC Treatment on NPC1 (−/−) Mice. Kaplan-Meier lifespan analysis of NPC1 (−/−) mice treated with either 0 mg/kg (dashed line) or 10 mg/kg (solid line) 27-HC.
as §1

[1] = test system: NPC1 (I1061T/I1061T) mice; assay: 27-HC treatment of NPC1 (I1061T/I1061T) mice by oral gavage; assay type: in vivo
Procedure: FIG. 11. Impact of 27-HC Treatment on NPC1 (I1061T/I1061T) Mice. Kaplan-Meier lifespan analysis of NPC1 (I1061T/I1061T) mice treated with either 0 mg/kg (dashed line) or 5 mg/kg (solid line) 27-HC three times per week by oral gavage.
FIG. 13. Impact of 27-HC Treatment on Lipid Accumulation in Livers of Male and Female Mice. Comparing livers of wild-type vs. NPC1 (I1061T/I1061T) mice, lipid accumulations (black arrows) are apparent in NPC1 mutant mice but not wild-type mice. This is true and both males and females.
as §1

[2] = test system: StARD9(−/−)/NPC1 (I1061T/I1061T) mice; assay: 27-HC treatment of mice mutant for both NPC1 and StARD9 / StARD9 knock-out mice; assay type: in vivo; settings: 5 mg/kg three times per week oral gavage; vs NPC1 (I1061T/I1061T) mice; p=0.0001
Procedure: FIG. 12. Impact of 27-HC Treatment on NPC1 (I1061T/I1061T)/StARD9 (−/−) Mice. Kaplan-Meier lifespan analysis of NPC1 (I1061T/I1061T) mice (solid line) to StARD9(−/−)/NPC1 (I1061T/I1061T) mice (dashed line) each treated with 5 mg/kg 27-HC three times per week by oral gavage.
Mutations in the NPC1 gene affect two independent lysosomal functions. The first is the generation of lysosomal tubules as a mechanism to deliver intracellular cholesterol to other membrane-bound compartments. Because this function is impaired in NPC disease, we investigated the protein components necessary for tubule projection. We identified 27-HC as a signaling molecule that stimulates lysosomal tubulation and is not provided properly to lysosomal membrane to elicit tubulation in NPC disease. To correct this defect, we provide pure 27-HC in a cocktail that bypasses endocytosis. […] We have also tested this therapy in two different transgenic strains of mice with NPC1 mutations. […] Because we know the molecular target for 27-HC (StARD9), we tested 27-HC treatment in mice where we removed the StARD9 gene. […] This confirms the molecular target for 27-HC treatment and is consistent with our proposed model for the defects in NPC disease. Independent of the role for NPC1 in lysosomal tubulation, NPC1 is the “receptor” for the pro-apoptotic protein STING. […]

[3] = NPC1 (I1061T/I1061T) mice, oral gavage, vs vehicle alone

## C[C@@H](CO)CCC[C@@H](C)[C@H]1CC[C@H]2[C@@H]3CC=C4C[C@@H](O)CC[C@]4(C)[C@H]3CC[C@]12C [27-HC, 27-hydroxycholesterol]
Lysosomal tubulation
  Potency as signaling molecule for StARD9 among cholesterol and individual oxysterols: most potent candidate
NPC1(−/−) mice; 10 mg/kg vs 0 mg/kg, p=0.0214
  Lifespan (Kaplan-Meier): extended the lifespan of the mice; also recorded: Extension of lifespan was significant
NPC1(−/−) mice; vs vehicle alone
  Onset of symptoms: delayed the onset of symptoms
  Purkinje cell preservation: preserved Purkinje cells
  Severity of symptoms: reduced the severity of symptoms
[1]; NPC1 (I1061T/I1061T) mice, 5 mg/kg vs 0 mg/kg three times per week oral gavage, p=0.0108
  Lifespan (Kaplan-Meier): extended the lifespan of the mice; also recorded: Extension of lifespan was significant
[1]; NPC1 (I1061T/I1061T) mice, males and females
  Lipid accumulation in livers: successful in reducing these lipid accumulations
[1]; NPC1 (I1061T/I1061T) mice, oral gavage
  Sex difference of treatment benefit: worked better in males than females
[1]; [3]
  Onset of symptoms: delayed the onset of symptoms
  Severity of symptoms: reduced the severity of symptoms
[1]; female NPC1 (I1061T/I1061T) mice
  Dosage needed for reduction of liver lipid accumulations, females: 40 mg/kg
[1]; females compared to males
  Sufficiency of the highest dose used, livers: not sufficient in females compared to males
[1]; male NPC1 (I1061T/I1061T) mice
  Dosage needed for reduction of liver lipid accumulations, males: 10 mg/kg
[2]
  Benefit of 27-HC treatment (lifespan) in mice lacking StARD9: the benefit of the 27-HC treatment was lost; also recorded: significantly less effective; also recorded: does not provide any benefit
